Test system: HepG2, HMEC-1, A549, Caco-2, 3T3
Assay: Multiparameter automated HCS cytotoxicity test "Cell health assay"
Type: cell-based
Parameters: scale not given here
Conditions: for cumulative cytotoxicity index: points over 5 cell lines; for cumulative cytotoxicity index, Total: sum over the five concentrations
Experimental: Thanks to the use of three fluorescent dyes (MitoTracker - Invitrogen, YO-[…], Hoechst 33 342 - Sigma), assessment of the impact of the studied extracts on the size, and morphology of the nucleus, cytoplasmic membrane integrity, and mitochondrial activity was made. Tests were performed on 96-well plates using 5 cell lines (HepG2, HMEC-1, A549, Caco-2, 3T3). The measurements were taken using automatic pipetting station JANUS by Perkin Elmer. The formulation was examined at five concentrations, measurements were taken in duplicates in 5 independent series. Based on the raw experimental data, statistical analysis of significance of observed differences in average values for three selected measurement parameters, measuring the fluorescence intensity, and dyed surface in cells, using fluorescent dyes, was made. The selected parameters illustrate: • 1. Surface of the cell nucleus (Hoechst (Sigma) • 2. Accumulation of YO-[…] dye (Invitrogen), indicating cytoplasmic membrane damage • 3. Mitochondrial potential (MitoTracker - Invitrogen) Then, the statistically significant differences for each tested concentration of each substance, which indicate morphological, and functional changes in cells, showing cytotoxic activity, were assigned with point values as shown in the diagram of assessment of the observed effects below. Differences subject to the scoring: • 1. Decrease, or increase in nucleus surface • 2. Increase in the accumulation of YO-[…] • 3. Decrease in the mitochondrial potential The following Table 13 illustrates the assigned point values given to the studied formulations in "Cell health assay" test. Table 13. Point values adopted in "Cell health assay" test. [table]

SMILES	cumulative cytotoxicity index (5 µg/ml)	cumulative cytotoxicity index (10 µg/ml)	cumulative cytotoxicity index (30 µg/ml)	cumulative cytotoxicity index (40 µg/ml)	cumulative cytotoxicity index (50 µg/ml)	cumulative cytotoxicity index, Total
O=c1c(O)c(-c2ccc(O)cc2)oc2cc(O)cc(O)c12 [Kaempferol]	2.6	1.4	8.4	8.4	6.2	27.0
C[C@@H]1O[C@@H](O[C@H]2[C@H](Oc3cc(O)c4c(c3)O[C@H](c3ccc(O)cc3)CC4=O)O[C@H](CO)[C@@H](O)[C@@H]2O)[C@H](O)[C@H](O)[C@H]1O [Naringin]	0.0	0.0	0.2	1.4	0.2	1.8

Source: EP2741758B1, “POLYPHENOLIC FORMULATION, ITS PREPARATION AND USE” (Uniwersytet Medyczny W Lodzi, priority 2011, dated 2013)
